Test results taken from paper PMC2787382 (The Journal of Biological Chemistry, 2009).

Tests used:
dP2XA = dP2XA (Dictyostelium discoideum, UniProt Q86JM7); experiment: two-electrode voltage clamp, Xenopus oocytes, peak current; type: cell-based
dP2XB = target: T1, dP2XB (Dictyostelium discoideum, UniProt Q553Y1); experiment: as above; type: cell-based
T1 sequence (Q553Y1 1-369): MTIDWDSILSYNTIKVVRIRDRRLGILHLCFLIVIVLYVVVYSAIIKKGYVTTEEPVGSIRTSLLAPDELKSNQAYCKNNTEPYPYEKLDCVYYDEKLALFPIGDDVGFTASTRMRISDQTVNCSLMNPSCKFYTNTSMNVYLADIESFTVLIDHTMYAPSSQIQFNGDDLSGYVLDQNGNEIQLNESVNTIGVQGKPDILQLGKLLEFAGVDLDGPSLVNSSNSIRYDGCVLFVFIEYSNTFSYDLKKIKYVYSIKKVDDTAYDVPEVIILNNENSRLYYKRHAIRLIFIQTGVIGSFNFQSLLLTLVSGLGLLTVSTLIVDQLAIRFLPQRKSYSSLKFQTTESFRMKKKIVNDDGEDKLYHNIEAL

dP2XE [1] = target: T2, dP2XE (Dictyostelium discoideum, UniProt Q54JH4); experiment: cell-based
T2 sequence (Q54JH4 1-388): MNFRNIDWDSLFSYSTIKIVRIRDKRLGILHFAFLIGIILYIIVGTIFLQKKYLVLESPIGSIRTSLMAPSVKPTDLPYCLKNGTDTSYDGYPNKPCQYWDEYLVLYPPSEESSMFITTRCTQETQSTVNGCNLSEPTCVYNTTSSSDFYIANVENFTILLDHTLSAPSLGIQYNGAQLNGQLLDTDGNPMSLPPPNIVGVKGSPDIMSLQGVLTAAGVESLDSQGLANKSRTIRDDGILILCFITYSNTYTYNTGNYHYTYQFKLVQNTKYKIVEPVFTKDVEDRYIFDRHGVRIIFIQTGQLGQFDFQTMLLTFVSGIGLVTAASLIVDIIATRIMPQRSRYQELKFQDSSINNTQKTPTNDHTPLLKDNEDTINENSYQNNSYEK

dP2XE [2] = target: T2, dP2XE; experiment: two-electrode voltage clamp, Xenopus oocytes, peak current; type: cell-based; settings: weak partial agonist; ND98K+, pH 6.2, −70 mV, room temperature

Chain of dP2XA (Q86JM7 whole entry): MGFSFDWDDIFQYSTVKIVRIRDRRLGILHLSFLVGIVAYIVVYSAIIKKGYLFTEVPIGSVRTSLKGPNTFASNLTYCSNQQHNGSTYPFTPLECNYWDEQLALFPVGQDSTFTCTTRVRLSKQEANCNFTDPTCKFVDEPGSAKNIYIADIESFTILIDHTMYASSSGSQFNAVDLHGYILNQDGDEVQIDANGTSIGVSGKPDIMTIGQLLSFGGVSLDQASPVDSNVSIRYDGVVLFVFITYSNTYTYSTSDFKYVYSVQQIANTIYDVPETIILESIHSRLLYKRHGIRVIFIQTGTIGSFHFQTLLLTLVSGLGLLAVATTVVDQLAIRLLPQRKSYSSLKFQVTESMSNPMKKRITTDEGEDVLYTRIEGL

Row | EC50 (dP2XA) [µM] | EC50 (dP2XB) [µM] | EC50 (dP2XE [1]) [µM] | maximal response, % that of ATP (dP2XE [2]) [%] | SMILES
1 | 97 | 266 | 511 |  | Nc1ncnc2c1ncn2[C@@H]1O[C@H](COP(=O)(O)OP(=O)(O)OP(=O)(O)O)[C@@H](O)[C@H]1O [ATP]
2 | 3.1 | 85 |  | 22.3 ± 6.4 | Nc1ncnc2c1ncn2[C@@H]1O[C@H](COP(=O)(O)OP(=O)(O)NP(=O)(O)O)[C@@H](O)[C@H]1O [β,γ-Imido-ATP]
